From ChEMBL document CHEMBL1681747, “Novel second generation analogs of eribulin. Part II: Orally available and active against resistant tumors in vivo” (Bioorg Med Chem Lett, 2011)

How the values were obtained:
[1] = Cytotoxicity against human MES-SA/Dx5-Rx1 cells; type: functional, cell-based
MES-SA = experiment: Fold resistant ratio of IC50 for MES-SA/Dx5-Rx1 cells to IC50 for human MES-SA cells
[2] = Cytotoxicity against human MES-SA cells; type: functional, cell-based
DLD-1 = experiment: Cytotoxicity against human DLD1 cells; type: functional, cell-based
HCT-15 = experiment: Cytotoxicity against human HCT15 cells; type: functional, cell-based

For `C=C1C[C@@H]2CC[C@@]34C[C@H]5O[C@H]6[C@@H](O3)[C@H]3O[C@H](CC[C@@H]3O[C@H]6[C@H]5O4)CC(=O)C[C@@H]3[C@@H](OC)[C@@H](C[C@@H](CN4CCN(C(=O)OCC)CC4)OC)O[C@H]3C[C@H]3O[C@@H](CC[C@@H]1O2)C[C@@H](C)C3=C`, the IC50 [1] was 3.05 nM, the “Ratio IC50” value (MES-SA) was 38.1 and the IC50 [2] was 0.08 nM.
Compound `C=C1C[C@@H]2CC[C@@]34C[C@H]5O[C@H]6[C@@H](O3)[C@H]3O[C@H](CC[C@@H]3O[C@H]6[C@H]5O4)CC(=O)C[C@@H]3[C@@H](OC)[C@@H](C[C@@H](CN4CC4C)OC)O[C@H]3C[C@H]3O[C@@H](CC[C@@H]1O2)C[C@@H](C)C3=C` (stereo partly drawn) has an IC50 [1] of 2.55 nM, an IC50 (DLD-1) of 0.29 nM and an IC50 (HCT-15) of 0.4 nM. For the same compound, the “Ratio IC50” value (MES-SA) was 19.91 and the IC50 [2] was 0.13 nM.
`C=C(C)CN(CC)CC[C@H]1O[C@H]2C[C@H]3O[C@@H](CC[C@@H]4O[C@@H](CC[C@@]56C[C@H]7O[C@H]8[C@@H](O5)[C@H]5O[C@H](CC[C@@H]5O[C@H]8[C@H]7O6)CC(=O)C[C@@H]2[C@H]1OC)CC4=C)C[C@@H](C)C3=C` showed an IC50 (DLD-1) of 0.61 nM and an IC50 (HCT-15) of 0.46 nM.
Work on `C=C1C[C@@H]2CC[C@@]34C[C@H]5O[C@H]6[C@@H](O3)[C@H]3O[C@H](CC[C@@H]3O[C@H]6[C@H]5O4)CC(=O)C[C@@H]3[C@@H](OC)[C@@H](C[C@@H](CN4CCN(S(=O)(=O)c5ccc(C)cc5)CC4)OC)O[C@H]3C[C@H]3O[C@@H](CC[C@@H]1O2)C[C@@H](C)C3=C` yielded an IC50 [1] of 39.1 nM, an IC50 (DLD-1) of 0.99 nM and an IC50 (HCT-15) of 0.62 nM. For the same compound, the “Ratio IC50” value (MES-SA) was 12.35 and the IC50 [2] was 3.16 nM.
`C#CCN(CC#C)CC[C@H]1O[C@H]2C[C@H]3O[C@@H](CC[C@@H]4O[C@@H](CC[C@@]56C[C@H]7O[C@H]8[C@@H](O5)[C@H]5O[C@H](CC[C@@H]5O[C@H]8[C@H]7O6)CC(=O)C[C@@H]2[C@H]1OC)CC4=C)C[C@@H](C)C3=C` showed an IC50 [1] of 3.99 nM, an IC50 (DLD-1) of 1.42 nM and an IC50 (HCT-15) of 0.89 nM. The “Ratio IC50” value (MES-SA) was 5.65 and the IC50 [2] was 0.69 nM.
With `C=CCN(CC=C)C[C@H](C[C@H]1O[C@H]2C[C@H]3O[C@@H](CC[C@@H]4O[C@@H](CC[C@@]56C[C@H]7O[C@H]8[C@@H](O5)[C@H]5O[C@H](CC[C@@H]5O[C@H]8[C@H]7O6)CC(=O)C[C@@H]2[C@H]1OC)CC4=C)C[C@@H](C)C3=C)OC` the IC50 [1] was 1.01 nM, the IC50 (DLD-1) was 0.44 nM and the IC50 (HCT-15) was 0.27 nM. For the same compound, the “Ratio IC50” value (MES-SA) was 6.26 and the IC50 [2] was 0.17 nM.
Work on `C=CCN(C)C[C@H](C[C@H]1O[C@H]2C[C@H]3O[C@@H](CC[C@@H]4O[C@@H](CC[C@@]56C[C@H]7O[C@H]8[C@@H](O5)[C@H]5O[C@H](CC[C@@H]5O[C@H]8[C@H]7O6)CC(=O)C[C@@H]2[C@H]1OC)CC4=C)C[C@@H](C)C3=C)OC` yielded an IC50 [1] of 1.95 nM, an IC50 (DLD-1) of 0.23 nM and an IC50 (HCT-15) of 0.22 nM. For the same compound, the “Ratio IC50” value (MES-SA) was 29.4 and the IC50 [2] was 0.07 nM.
With `C=C1C[C@@H]2CC[C@@]34C[C@H]5O[C@H]6[C@@H](O3)[C@H]3O[C@H](CC[C@@H]3O[C@H]6[C@H]5O4)CC(=O)C[C@@H]3[C@@H](OC)[C@@H](CCN4CCOCC4)O[C@H]3C[C@H]3O[C@@H](CC[C@@H]1O2)C[C@@H](C)C3=C` the IC50 (DLD-1) was 0.23 nM and the IC50 (HCT-15) was 0.16 nM.
`C=C1C[C@@H]2CC[C@@]34C[C@H]5O[C@H]6[C@@H](O3)[C@H]3O[C@H](CC[C@@H]3O[C@H]6[C@H]5O4)CC(=O)C[C@@H]3[C@@H](OC)[C@@H](CCN4CCC(C(F)(F)F)CC4)O[C@H]3C[C@H]3O[C@@H](CC[C@@H]1O2)C[C@@H](C)C3=C` showed an IC50 (DLD-1) of 0.22 nM and an IC50 (HCT-15) of 0.14 nM.
`C=C1C[C@@H]2CC[C@@]34C[C@H]5O[C@H]6[C@@H](O3)[C@H]3O[C@H](CC[C@@H]3O[C@H]6[C@H]5O4)CC(=O)C[C@@H]3[C@@H](OC)[C@@H](C[C@@H](CN4C[C@H]4C)OC)O[C@H]3C[C@H]3O[C@@H](CC[C@@H]1O2)C[C@@H](C)C3=C` (stereo partly drawn) showed an IC50 [1] of 2.79 nM, an IC50 (DLD-1) of 0.53 nM and an IC50 (HCT-15) of 0.78 nM. For the same compound, the “Ratio IC50” value (MES-SA) was 18.04 and the IC50 [2] was 0.16 nM.
For `C=C1C[C@@H]2CC[C@@]34C[C@H]5O[C@H]6[C@@H](O3)[C@H]3O[C@H](CC[C@@H]3O[C@H]6[C@H]5O4)CC(=O)C[C@@H]3[C@@H](OC)[C@@H](C[C@@H](CN(C)c4ncccn4)OC)O[C@H]3C[C@H]3O[C@@H](CC[C@@H]1O2)C[C@@H](C)C3=C`, the IC50 [1] was 10.1 nM, the IC50 (DLD-1) was 6.9 nM and the IC50 (HCT-15) was 5.4 nM. The “Ratio IC50” value (MES-SA) was 4.66 and the IC50 [2] was 2.17 nM.
Work on `C=C1C[C@@H]2CC[C@@]34C[C@H]5O[C@H]6[C@@H](O3)[C@H]3O[C@H](CC[C@@H]3O[C@H]6[C@H]5O4)CC(=O)C[C@@H]3[C@@H](OC)[C@@H](C[C@@H](CN4CCN(C(F)(F)F)CC4)OC)O[C@H]3C[C@H]3O[C@@H](CC[C@@H]1O2)C[C@@H](C)C3=C` yielded an IC50 [1] of 0.83 nM, an IC50 (DLD-1) of 0.17 nM and an IC50 (HCT-15) of 0.15 nM. For the same compound, the “Ratio IC50” value (MES-SA) was 6.03 and the IC50 [2] was 0.14 nM.
With `C=C1C[C@@H]2CC[C@@]34C[C@H]5O[C@H]6[C@@H](O3)[C@H]3O[C@H](CC[C@@H]3O[C@H]6[C@H]5O4)CC(=O)C[C@@H]3[C@@H](OC)[C@@H](CCN)O[C@H]3C[C@H]3O[C@@H](CC[C@@H]1O2)C[C@@H](C)C3=C` the IC50 [1] was 47.6 nM, the IC50 (DLD-1) was 4.67 nM and the IC50 (HCT-15) was 8.57 nM. For the same compound, the “Ratio IC50” value (MES-SA) was 288.17 and the IC50 [2] was 0.17 nM.
`C#CCN(CC#C)C[C@H](C[C@H]1O[C@H]2C[C@H]3O[C@@H](CC[C@@H]4O[C@@H](CC[C@@]56C[C@H]7O[C@H]8[C@@H](O5)[C@H]5O[C@H](CC[C@@H]5O[C@H]8[C@H]7O6)CC(=O)C[C@@H]2[C@H]1OC)CC4=C)C[C@@H](C)C3=C)OC` gave an IC50 [1] of 0.53 nM, an IC50 (DLD-1) of 0.28 nM and an IC50 (HCT-15) of 0.17 nM. For the same compound, the “Ratio IC50” value (MES-SA) was 3.99 and the IC50 [2] was 0.13 nM.
`C=CCN(CC=C)CC[C@H]1O[C@H]2C[C@H]3O[C@@H](CC[C@@H]4O[C@@H](CC[C@@]56C[C@H]7O[C@H]8[C@@H](O5)[C@H]5O[C@H](CC[C@@H]5O[C@H]8[C@H]7O6)CC(=O)C[C@@H]2[C@H]1OC)CC4=C)C[C@@H](C)C3=C` gave an IC50 [1] of 1.15 nM, an IC50 (DLD-1) of 0.31 nM and an IC50 (HCT-15) of 0.21 nM. The “Ratio IC50” value (MES-SA) was 6.57 and the IC50 [2] was 0.17 nM.
With `C=C1C[C@@H]2CC[C@@]34C[C@H]5O[C@H]6[C@@H](O3)[C@H]3O[C@H](CC[C@@H]3O[C@H]6[C@H]5O4)CC(=O)C[C@@H]3[C@@H](OC)[C@@H](C[C@@H](CNCC(=O)OCCCC)OC)O[C@H]3C[C@H]3O[C@@H](CC[C@@H]1O2)C[C@@H](C)C3=C` the IC50 [1] was 1.6 nM, the IC50 (DLD-1) was 0.58 nM and the IC50 (HCT-15) was 0.37 nM. The “Ratio IC50” value (MES-SA) was 5.83 and the IC50 [2] was 0.28 nM.
With `C#CCN(C)C[C@H](C[C@H]1O[C@H]2C[C@H]3O[C@@H](CC[C@@H]4O[C@@H](CC[C@@]56C[C@H]7O[C@H]8[C@@H](O5)[C@H]5O[C@H](CC[C@@H]5O[C@H]8[C@H]7O6)CC(=O)C[C@@H]2[C@H]1OC)CC4=C)C[C@@H](C)C3=C)OC` the IC50 (DLD-1) was 0.31 nM and the IC50 (HCT-15) was 0.19 nM.
With `C=C(C)CN(CC)C[C@H](C[C@H]1O[C@H]2C[C@H]3O[C@@H](CC[C@@H]4O[C@@H](CC[C@@]56C[C@H]7O[C@H]8[C@@H](O5)[C@H]5O[C@H](CC[C@@H]5O[C@H]8[C@H]7O6)CC(=O)C[C@@H]2[C@H]1OC)CC4=C)C[C@@H](C)C3=C)OC` the IC50 (DLD-1) was 0.51 nM and the IC50 (HCT-15) was 0.34 nM.
Work on `C=C1C[C@@H]2CC[C@@]34C[C@H]5O[C@H]6[C@@H](O3)[C@H]3O[C@H](CC[C@@H]3O[C@H]6[C@H]5O4)CC(=O)C[C@@H]3[C@@H](OC)[C@@H](C[C@H](O)CN4CCOCC4)O[C@H]3C[C@H]3O[C@@H](CC[C@@H]1O2)C[C@@H](C)C3=C` yielded an IC50 [1] of 7.26 nM, an IC50 (DLD-1) of 0.31 nM and an IC50 (HCT-15) of 0.36 nM. For the same compound, the “Ratio IC50” value (MES-SA) was 49.82 and the IC50 [2] was 0.15 nM.
Compound `C=C1C[C@@H]2CC[C@@]34C[C@H]5O[C@H]6[C@@H](O3)[C@H]3O[C@H](CC[C@@H]3O[C@H]6[C@H]5O4)CC(=O)C[C@@H]3[C@@H](OC)[C@@H](C[C@@H](CN4C[C@@H]4C)OC)O[C@H]3C[C@H]3O[C@@H](CC[C@@H]1O2)C[C@@H](C)C3=C` (stereo partly drawn) has an IC50 [1] of 2.23 nM, an IC50 (DLD-1) of 0.47 nM and an IC50 (HCT-15) of 0.67 nM. The “Ratio IC50” value (MES-SA) was 18.26 and the IC50 [2] was 0.13 nM.
